{"source": "patent US10125358B2", "about": "“Methods and compounds for increasing threonyl-tRNA synthetase activity” (UNIVERSITY OF VERMONT AND STATE AGRICULTURAL COLLEGE, priority 2012, dated 2018)", "key": {"HUVEC": {"system": "HUVEC", "assay": "Transwell migration assay", "assay_type": "cell-based, human", "conditions": "100 nM protein in migration compartment, 4 h", "experimental": "Transwell Migration Assay—\nMigration was assessed using transwell inserts (Svensson, Kucharzewska et al. 2011). […] Cultures were incubated for 4 h, fixed in 10% formalin, and stained with 10 μg/ml DAPI solution (Roche) following removal of cells from the top layer of the chamber with a cotton swab. Migrated cells were imaged using a 4× objective on the Olympus IX70 Inverted microscope (Olympus). DAPI-stained nuclei were counted using ImageJ software."}, "[1]": {"system": "chorioallantoic membrane (CAM) of chicken embryos", "assay": "Chick chorioallantoic membrane (CAM) assay", "assay_type": "in vivo", "conditions": "purified protein applied daily to gelfoam sponge, 72 h", "experimental": "Chick Chorioallantoic Membrane Assay—\nFertilized chicken eggs (Sunrise Farms, Catskill, N.Y.) day 1-2 post-laying were incubated in a humidified incubator at 37° C. for 72 h. Cleaned eggs were cracked and plated in a sterile 10 cm^2 tissue culture-treated dish and incubated at 37° C. for another 7 days. On developmental day 10, 1 mm^3 sterile gelatin sponge pieces (Surgifoam®; Johnson & Johnson Wound Management, Somerville, N.J.) were placed within the outer one-third of the membrane between large vessels. […] All compounds were applied in 10 μl to the CAM every 24 h for 72 h. Images were taken using a Leica MZ6 stereomicroscope every 24 h. Compounds were scored according to a modified version of Intensity Scoring as previously described (Ribatti, Nico et al. 2006). Briefly, each experimental condition was given a blinded score from 0-5 based on the change in the extent of vessel convergence and formation in proximity to the sponge from day 0 to day 3. Total score is averaged individual experimental condition scores from at least 15 replicates.\nFertilized chicken embryos were cultured ex-ova and, starting at developmental day 10, agents were applied daily to gelfoam sponges on the CAM. Images were recorded daily over 72 h and scored blindly according to a modified version Intensity Scoring as previously described (Ribatti, Nico et al. 2006). Additional details regarding methods are provided in the Methods and Materials section of Example 1."}, "[2]": {"assay": "LARS steady state ATPase activity (32P-ATP to AMP)", "assay_type": "biochemical", "conditions": "1 μM human LARS", "experimental": "LARS steady state ATPase activity was determined using the same procedure as for TARS aminoacylation with the following modifications. […] ATP (PerkinElmer, Waltham, Mass.) was added. Reactions were incubated for 3 minutes at 37° C. and initiated with the addition of 1 μM human LARS. At various time points 5 μl aliquots were quenched in 45 μl of 500 mM sodium acetate and 0.1% sodium dodecyl sulfate. For each sample, 1 μl was spotted onto a CCM cellulose PEI F plates (EMD) and resolved via thin-layer chromatography in 0.75 M potassium phosphate buffer mobile phase. Radioactive signals were detected via phosphorimaging and AMP production overtime was quantified using Quantity One v 4.6.6 software (Bio-Rad, Hercules, Calif.)."}}, "note": "Entries after “also recorded” stand apart in the source; their conditions may differ."}
{"substance": "LARS: N-terminal HIS6-tagged human leucyl tRNA synthetase purified from E. coli", "values": [{"measurement": "migration of endothelial cells", "setting": "HUVEC", "value": "did not affect migration"}, {"measurement": "CAM vessel formation / vascularity, effect of applied synthetase", "setting": "[1]", "value": "no observable effect; also recorded: no effect on angiogenesis"}, {"measurement": "LARS enzyme activity (conversion of 32P-ATP to AMP)", "setting": "[2]", "value": "exhibits enzyme activity"}]}
